In the CheMixHub viscosity set:

Assay: xn = mol fraction of the nth substance listed

Oc1ccc2ccccc2c1 + CCCCO
viscosity [mPa·s], 101 kPa
Details	x1 = 0.04	x1 = 0.08	x1 = 0.12	x1 = 0.16	x1 = 0.2
293.15 K	3.344	3.751	4.242	4.879	5.596
303.15 K	2.529	2.808	3.17	3.582	4.024
313.15 K	1.974	2.175	2.421	2.751	3.144
323.15 K	1.592	1.712	1.882	2.11	2.374

CCNCC + CCCCOCCO
viscosity [mPa·s], 100 kPa
Details	298.15 K	303.15 K	308.15 K
x2 = 0.0499	0.35	0.335	0.31
x2 = 0.1001	0.417	0.391	0.368
x2 = 0.1508	0.485	0.45	0.423
x2 = 0.2001	0.561	0.523	0.492
x2 = 0.2997	0.758	0.693	0.647
x2 = 0.3995	1.028	0.933	0.865
x2 = 0.5	1.356	1.212	1.116
x2 = 0.5999	1.72	1.516	1.389
x2 = 0.7	2.083	1.832	1.673
x2 = 0.7999	2.407	2.101	1.913
x2 = 0.8997	2.662	2.319	2.1
x2 = 0.9495	2.769	2.415	2.181

Nc1ccccc1 + CCCCOCCO
viscosity [mPa·s]
Details	298 K	303 K	303.15 K	308 K	313 K	318 K
101 kPa, x1 = 0.138	–	–	2.999	–	–	–
101 kPa, x1 = 0.2648	–	–	3.156	–	–	–
101 kPa, x1 = 0.3818	–	–	3.287	–	–	–
101 kPa, x1 = 0.49	–	–	3.4	–	–	–
101 kPa, x1 = 0.5903	–	–	3.486	–	–	–
101 kPa, x1 = 0.6837	–	–	3.553	–	–	–
101 kPa, x1 = 0.7708	–	–	3.614	–	–	–
101 kPa, x1 = 0.8522	–	–	3.666	–	–	–
101 kPa, x1 = 0.9284	–	–	3.707	–	–	–
101.3 kPa, x2 = 0.0995	3.539	2.974	–	2.573	2.238	1.967
101.3 kPa, x2 = 0.1968	3.471	2.915	–	2.528	2.189	1.929
101.3 kPa, x2 = 0.2548	3.448	2.887	–	2.512	2.184	1.922
101.3 kPa, x2 = 0.3024	3.429	2.886	–	2.507	2.16	1.905
101.3 kPa, x2 = 0.3953	3.397	2.86	–	2.482	2.145	1.893
101.3 kPa, x2 = 0.4355	3.39	2.854	–	2.477	2.143	1.892
101.3 kPa, x2 = 0.5146	3.35	2.833	–	2.463	2.123	1.875
101.3 kPa, x2 = 0.5909	3.31	2.805	–	2.438	2.108	1.856
101.3 kPa, x2 = 0.6936	3.219	2.731	–	2.381	2.07	1.827
101.3 kPa, x2 = 0.8002	3.1	2.588	–	2.332	2.02	1.787
101.3 kPa, x2 = 0.8933	2.974	2.545	–	2.259	1.962	1.742

CCNCC + CCCCOCCOCCO
viscosity [mPa·s], 100 kPa
Details	298.15 K	303.15 K	308.15 K
x2 = 0.05043	0.3695	0.3487	0.3286
x2 = 0.09991	0.457	0.4294	0.4036
x2 = 0.1494	0.5594	0.5411	0.4914
x2 = 0.2	0.699	0.6487	0.6022
x2 = 0.3	1.062	0.9662	0.8961
x2 = 0.4001	1.56	1.376	1.288
x2 = 0.5	2.156	1.896	1.722
x2 = 0.6	2.817	2.45	2.215
x2 = 0.6997	3.484	3.007	2.686
x2 = 0.7998	4.107	3.511	3.132
x2 = 0.9	4.667	3.966	3.532
x2 = 0.9491	4.904	4.167	3.705

CN(CCO)CCO + CCCCn1cc[n+](C)c1.F[B-](F)(F)F
Details	viscosity [mPa·s]
323.15 K, 101 kPa, x2 = 0.6997	20.65

COCCOCCOCCO + CCCN
298.15 K, 101 kPa
Details	viscosity [mPa·s]
x1 = 0.0053	0.369
x1 = 0.0087	0.378
x1 = 0.0251	0.415
x1 = 0.0368	0.44
x1 = 0.068	0.514
x1 = 0.081	0.549
x1 = 0.105	0.617
x1 = 0.1254	0.682
x1 = 0.1752	0.861
x1 = 0.2146	1.034
x1 = 0.2627	1.279
x1 = 0.2934	1.456
x1 = 0.3347	1.724
x1 = 0.3651	1.935
x1 = 0.4217	2.362
x1 = 0.471	2.749
x1 = 0.5445	3.35
x1 = 0.574	3.599
x1 = 0.6281	4.032
x1 = 0.6683	4.359
x1 = 0.7088	4.66
x1 = 0.7716	5.104
x1 = 0.812	5.359
x1 = 0.8595	5.626
x1 = 0.8867	5.774
x1 = 0.9185	5.92

Oc1ccc2ccccc2c1 + CCCO
viscosity [mPa·s], 101 kPa
Details	x1 = 0.04	x1 = 0.08	x1 = 0.12	x1 = 0.16	x1 = 0.2
293.15 K	2.6	3.004	3.529	4.172	4.954
303.15 K	2.025	2.288	2.658	3.1	3.63
313.15 K	1.635	1.803	2.062	2.37	2.764
323.15 K	1.326	1.447	1.636	1.869	2.168
